Test system: PC-12 cells
Test: Viable cell counts, PC-12 cells
Format: cell-based, rat
Details: for cell viability (in words): 2 μM oxaliplatin alone
Procedure: The neurostimulatory, neuroprotective, and neurotrophic qualities of the SapC-phospholipid formulation (BXQ-350) were tested in vitro in two cell lines, i.e., PC-12 cells (derived from a pheochromocytoma of a rat adrenal medulla) and NS20Y cells (cholinergic cell line derived from a mouse neuroblastoma).
PC-12 cells (ATCC, catalogue number CRL-1721) and NS20Y cells (Millipore Sigma, catalogue number 08062517) were seeded overnight in 24-well plates containing 1×10^4 cells per well in 1 mL of DMEM (Gibco, catalog number 11965-092) supplemented with 10% FBS and PenStrep. Each agent tested was brought to solution, at its appropriate concentrations, in a dosing media consisting of high glucose, no glutamine, no calcium DMEM (Gibco, catalog number 21068-028) supplemented with 4 mM glutamine, 1 mM calcium gluconate and PenStrep. […] The seeding medium was completely removed from the cells before the dosing medium containing the testing agents was added.
PC-12 cells (ATCC, catalogue number CRL-1721) and NS20Y cells (Millipore Sigma, catalogue number 08062517) were seeded overnight in 24-well plates containing 1×10^4 cells per well in 1 mL of DMEM (Gibco, catalog number 11965-092) supplemented with 10% FBS and PenStrep. Each agent tested was brought to solution, at its appropriate concentrations, in a dosing media consisting of high glucose, no glutamine, no calcium DMEM (Gibco, catalog number 21068-028) supplemented with 4 mM glutamine, 1 mM calcium gluconate and PenStrep. BXQ-350 was tested at concentrations between 5 nM and 1 μM concentration of SapC. The seeding medium was completely removed from the cells before the dosing medium containing the testing agents was added.
The viability of the cytotoxic drug+BXQ-350 combination groups was about 50% of the BXQ-350 alone group.

Which results are given for `O=C([O-])C(=O)[O-].[NH-][C@@H]1CCCC[C@H]1[NH-].[Pt+4]` (relative stereo) [Oxaliplatin, cis-[(1R,2R)-1,2-cyclohexanediamine-N,N′][oxalato(2)-O,O′] platinum]?
cell viability (in words): negligible cell viability; cell viability (2 μM oxaliplatin alone (FIG. 12)): less than 1%; cell viability (in words) (listed as oxaliplatin): severely reduces cell viability

— US20240316146A1, “METHODS OF REDUCING NEUROPATHY AND NEUROPATHIC SYMPTOMS AND TREATING CANCER” (Bexion Pharmaceuticals Inc., priority 2021, published 2024)
